Assay [1] concerns wild-type and variant SNAP-GIPR in INS-1 cells. Kind of assay: Proteasomal inhibition, total SNAP-GIPR in INS-1 cells. In kind it is cell-based, human. Conditions: for total SNAP-GIPR level with PSI: 100 μM, 4 h, INS-1, scaled to experimental average without PSI; for total SNAP-GIPR level after proteasomal inhibition: INS-1, 100 μM, 4 hours. The method, then: INS-1 cells were reverse transfected with the GIPR variant or wild-type plasmids in 96-well, clear-bottom, black microplates precoated with poly-D-lysine. All variants were tested in parallel on each occasion to control for transfection efficiency differences between experiments. Twelve hours posttransfection, the cells were treated with either vehicle or Proteasome Inhibitor I (Merck) for 4 hours. Following this, the cells were labeled with the cell-permeable SNAP-tag probe BG-OG ([29]) for 10 min at 37°C to label total SNAP. Cells were then imaged as in the “Assessment of surface GIPR expression by SNAP-tag labeling in cell lines” section to establish total GIPR labeling (surface and intracellular). Images were analyzed as in the “Assessment of surface GIPR expression by SNAP-tag labeling in cell lines” section.

Assay [2] has the same test system. Kind of assay: Bafilomycin A1 effect on surface SNAP-GIPR in INS-1 cells. Type of assay: cell-based, human. The settings on record: inhibition of constitutive GIPR down-regulation; fig. S2A. Here is the method:
Twenty-four hours before the experiment, AD293 or INS-1 cells were reverse transfected with GIPR variant or wild-type plasmids using Lipofectamine 2000 in 96-well, clear-bottom, black microplates precoated with poly-D-lysine. All variants were tested in parallel on each occasion to control for transfection efficiency differences between experiments.

Assay [3] addresses T1, wild-type and variant SNAP-GIPR (Homo sapiens, UniProt P48546, E354Q).
T1 construct: the endogenous GIPR signal peptide was removed and replaced with a SNAPf tag; host or cells: AD293 (adherent HEK293), transient transfection
T1 sequence (P48546 22-466 E354Q): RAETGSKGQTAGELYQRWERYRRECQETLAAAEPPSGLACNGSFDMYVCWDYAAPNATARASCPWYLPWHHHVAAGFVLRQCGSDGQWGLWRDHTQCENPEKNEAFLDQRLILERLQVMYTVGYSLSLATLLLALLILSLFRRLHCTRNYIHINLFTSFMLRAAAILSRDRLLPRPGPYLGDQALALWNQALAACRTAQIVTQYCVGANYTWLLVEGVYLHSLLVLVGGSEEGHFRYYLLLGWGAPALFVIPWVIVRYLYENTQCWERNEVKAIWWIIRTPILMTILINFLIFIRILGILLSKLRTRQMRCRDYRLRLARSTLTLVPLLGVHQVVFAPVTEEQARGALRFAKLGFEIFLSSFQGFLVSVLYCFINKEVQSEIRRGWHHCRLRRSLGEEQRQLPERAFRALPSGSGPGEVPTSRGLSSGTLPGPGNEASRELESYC
Kind of assay: cAMP concentration response (HTRF) in AD293 cells, SNAP-GIPR. Type of assay: cell-based. Conditions: AD293, SNAP-GIPR E354Q, 0.1% BSA. The method, then: (Imperial College London): 24 hours before the experiment, AD293 cells were reverse transfected with the GIPR variant or wild-type plasmids using Lipofectamine 2000 in 12-well plates. All variants were tested in parallel on each occasion to control for transfection efficiency differences between experiments. […] Data were fit using a three-parameter logistic model using GraphPad Prism 10.
A general note: TR-FRET usually uses a lanthanide donor and a delayed reading to cut background.

In the next assay the target is T2, hGIPR WT (Homo sapiens, UniProt P48546).
T2 construct: expressed in transfected cells; host or cells: HEK293, transient
T2 sequence (P48546 22-466): T1 sequence (P48546 22-466 E354Q) with Q333E
Kind of assay: cAMP accumulation in HEK293 cells, untagged GIPR (Eli Lilly). Type of assay: cell-based. The settings on record: HEK-293, untagged, 0.1% casein, (SEM, n), n=4.

Assay [4] has as its system membranes from untransfected HEK293 cells. Kind of assay: [125I]GIP(1-42)OH radioligand binding, untransfected control. The arrangement: species or system human. Conditions: either assay condition. The method, then:
Radioligand binding to the GIPR variant receptors was performed using the assay procedure described in ([59]) with some slight modification in the buffer. […] A3782), and 25 mM Hepes (Gibco, catalog no. […] The assay was incubated overnight at 25°C and then centrifuged at 1000 rpm (Beckman Coulter, Avanti J-15R).

Where a chain is given by its changes, count along the chain named. Peptide text beside a SMILES is read from it. * marks the point of attachment. Cbz = O=C(OCc1ccccc1)*; OtBu = CC(C)(C)O*

For `CC[C@H](C)[C@H](NC(=O)OCc1ccccc1)C(=O)N[C@@H](CCC(=O)OC(C)(C)C)C(=O)N[C@@H](C)C(=O)N[C@H](C=O)CC(C)C` [PSI] (Cbz-IE(OtBu)AL-aldehyde), the “total SNAP-GIPR level with PSI” value in assay [1] (E288G, replicate 1) is 0.3892; in assay [1] (E288G, replicate 2) it was 3.417; in assay [1] (E288G, replicate 3) it was 2.001; in assay [1] (E288G, replicate 4) it was 0.9026; in assay [1] (E288G, replicate 5) it was 1.217; in assay [1] (E354Q, replicate 1) it was 0.9055. Further, the “total SNAP-GIPR level with PSI” value in assay [1] (E354Q, replicate 2) was 0.737; in assay [1] (E354Q, replicate 3), 1.364; in assay [1] (E354Q, replicate 4), 0.8268; in assay [1] (E354Q, replicate 5), 0.8316; in assay [1] (R101H, replicate 1), 0.131; in assay [1] (R101H, replicate 2) it was 0.3704. In addition, the “total SNAP-GIPR level with PSI” value turned out to be 0.7801 in assay [1] (R101H, replicate 3); 0.651 in assay [1] (R101H, replicate 4); 0.8591 in assay [1] (R101H, replicate 5); 0.3291 in assay [1] (R190Q, replicate 1); 0.5524 in assay [1] (R190Q, replicate 2); 1.18 in assay [1] (R190Q, replicate 3). Further, the “total SNAP-GIPR level with PSI” value turned out to be 0.5932 in assay [1] (R190Q, replicate 4); 0.77 in assay [1] (R190Q, replicate 5); 4.2848 in assay [1] (WT, replicate 1); 3.795 in assay [1] (WT, replicate 2); 3.454 in assay [1] (WT, replicate 3); 1.746 in assay [1] (WT, replicate 4). In addition, in assay [1] (WT, replicate 5), the “total SNAP-GIPR level with PSI” value is listed as 2.287. Further, the “total SNAP-GIPR level after proteasomal inhibition” value is reported as “significant increase in E288G levels” in assay [1] (E288G); “numerically similar trends” in assay [1] (R190Q and R101H); “unaffected by proteasomal inhibition” in assay [1] (wild-type and E354Q).

`CO/C1=C\C(C)=C\[C@@H](C)[C@@H](O)[C@@H](C)C/C(C)=C/C=C/[C@H](OC)[C@@H]([C@@H](C)[C@@H](O)[C@H](C)[C@@]2(O)C[C@@H](O)[C@H](C)[C@@H](C(C)C)O2)OC1=O` [bafilomycin A1]: the “rescue of surface expression of GIPR variants” value in assay [2] is “did not lead to disproportionate “rescue””.

For the compound `CC[C@H](C)[C@H](NC(=O)[C@H](CC(C)C)NC(=O)[C@H](Cc1c[nH]c2ccccc12)NC(=O)[C@H](CCC(N)=O)NC(=O)[C@@H](NC(=O)[C@H](Cc1ccccc1)NC(=O)[C@H](C)NC(=O)[C@H](CCCCNC(=O)COCCOCCNC(=O)COCCOCCNC(=O)CC[C@H](NC(=O)CCCCCCCCCCCCCCCCCCC(=O)O)C(=O)O)NC(=O)[C@H](CCC(N)=O)NC(=O)[C@H](C)NC(=O)[C@@H](NC(=O)[C@H](CCCCN)NC(=O)[C@H](CC(=O)O)NC(=O)[C@H](CC(C)C)NC(=O)C(C)(C)NC(=O)[C@@H](NC(=O)[C@H](CO)NC(=O)[C@H](Cc1ccc(O)cc1)NC(=O)[C@H](CC(=O)O)NC(=O)[C@H](CO)NC(=O)[C@@H](NC(=O)[C@H](Cc1ccccc1)NC(=O)[C@@H](NC(=O)CNC(=O)[C@H](CCC(=O)O)NC(=O)C(C)(C)NC(=O)[C@@H](N)Cc1ccc(O)cc1)[C@@H](C)O)[C@@H](C)O)[C@@H](C)CC)[C@@H](C)CC)C(C)C)C(=O)N[C@@H](C)C(=O)NCC(=O)NCC(=O)N1CCC[C@H]1C(=O)N[C@@H](CO)C(=O)N[C@@H](CO)C(=O)NCC(=O)N[C@@H](C)C(=O)N1CCC[C@H]1C(=O)N1CCC[C@H]1C(=O)N1CCC[C@H]1C(=O)N[C@@H](CO)C(N)=O` [tirzepatide], in assay [3], the “cAMP signaling (∆LogEmax/EC50)” value is “increased cAMP signaling”. The Emax (usually the greatest response seen or fitted, relative to the assay's reference) on hGIPR WT is 90.6%.

As for “[125I]GIP(1-42)OH: radioligand [125I]GIP(1-42)OH (Revvity)”, in assay [4], the “specific binding, untransfected HEK293 membranes” value is recorded as “no significant specific binding detected”.

These data come from paper PMC13544220, “Glycemic and bodyweight effects of GIPR coding variation reflect differences in surface expression and intrinsic functional impairment” (Science Advances, 2026).
